Entries after “also recorded” stand apart in the source; their conditions may differ.
Key:
[1] = Solubility, stability and pH; assay type: physicochemical; details: for stability on exposure to air: solid
Description: The active principle of Tercuronium, viz., p,p"-bis-triethylammonio-n-terphenyl dibenzenesulphonate having the structure [drawing 1] is a new compound that has not been described in literature. […] A 0.0012 percent solution of the active principle in a 0.01 N solution of hydrochloric acid has a specific absorption spectrum in the U-V region, with a maximum at 285 ± 2 nm and a minimum at 237 ± 1 nm.
Distilled water should contain a stabilizing agent, namely 3 ml of a 0.1 N solution of HCl per liter of water. The solution is stirred, filtered, and filled into 1-ml ampoules made of neutral glass. The ampoules are sterilized with steam at a temperature of 100° C for thirty minutes. The pH of the solution after sterilization is 3.7 (determined potentiometrically).

[2] = system: ischio-gastrocnemius conduction; experiment: Block of ischio-gastrocnemius conduction in narcotized rabbits; assay type: in vivo
Description: In experiments on narcotized rabbits (chloralose, 50 mg/kg, and urethane, 500 mg/kg, given intravenously) the intravenous dose of Tercuronium that produced complete block of the ischio-gastrocnemius conduction was 0.025 ± 0.005 mcM/kg (five experiments).

M-cholinoreceptors = experiment: Depression after intravenous acetylcholine in cats; assay type: in vivo; details: 0.1 to 1.0 mcM/kg; acetylcholine 3 mg/kg; three cats
Description: (§1) Experiments were carried out on narcotized cats (chloralose and urethane, intraperitoneally).

[3] = system: blood coagulation and erythrocytes; experiment: Effect on blood coagulation rate and resistance of erythrocytes; assay type: in vivo; details: two rabbits, two narcotized cats
[4] = system: M-cholinoreceptors and conduction in parasympathetic ganglia; experiment: Effect on M-cholinoreceptors and parasympathetic ganglia, n. vagus stimulation in cats; assay type: in vivo
Description: as §1
In experiments on five animals, the left nervus vagus was cut. Platinum electrodes were placed on the peripherial part to stimulate the nerve with pulses of 0.1 msec and an amplitude of 5 V. The nerve was stimulated every 10 seconds at a frequency of 30 Hz. The pulse rate was recorded (ECG) and the blood pressure in the femoral artery was measured with a mercury pressure gauge.

rabbits [5] = experiment: Chronic toxicity in rabbits; assay type: in vivo
Description: Tercuronium was given intravenously to four rabbits, once a day in the course of twelve days, in a dose that induced the head-drop symptom, i.e. 0.02 to 0.024 mcM/kg. Physiological solution was injected instead of Tercuronium to two other rabbits (controls). The animals were weighed daily, their rectal temperature taken, and behaviour observed. Clinical analysis of urine and blood was performed three times. At the end of the experiment, the rabbits were killed (phlebotomy). The liver, kidneys, heart, lungs, adrenal glands, spleen, as well as marginal ear vein, into which Tercuronium had been injected, were histologically studied.

[6] = system: nervomuscular conduction and arterial pressure; experiment: Effect of narcotics on action in decerebrated cats; assay type: in vivo
Excerpt: The action of ether, fluorothane, and sodium thiopental (given in narcotic concentrations) on the nervomuscular blocking activity and depressive effect (action on the arterial pressure) of Tercuronium, as well as on the neostigmin-Tercuronium antagonism was studied on decerebrated cats.

[7] = system: straight muscles of the frog abdomen; experiment: Isolated straight muscle of frog abdomen, antagonism of acetylcholine; parameters: species or system frog (Rana tempraria)
Excerpt: In experiments on isolated straight muscles of the frog abdomen (Rana tempraria) the concentration of Tercuronium, that weakened the action acetylcholine, was 2.0 ± 0.04 × × 10^-7 m/l.

rabbits [8] = experiment: Head-drop test in non-narcotized rabbits; assay type: in vivo
Description: In experiments (a total of twenty) on non-narcotized rabbits, the head-drop dose (HDD) was 0.022 ± 0.009 micromole/kg A complete blocking effect developed 1.5 to 2 minutes after administration of Tercuronium and persisted for 3 to 5 minutes. A few minutes later, the animal behaviour normalized. The same effect was attained with 0.18 ± 0.02 micromole/kg of α-tubocurarin (6 experiments) and 0.018 ± 0.001 mcM/kg of pancuronium (6 experiments). The time of onset and the duration of the blocking effect with all the three preparations were the same.

rabbits [9] = experiment: Allergizing action, Arthus-Sakharov phenomenon in rabbits; assay type: in vivo; details: seven subcutaneous injections at 5-day intervals
Description: In order to study the allergizing action of Tercuronium, we used the Arthus-Sakharov phenomenon. Experiments were carried on three rabbits. Tercuronium was injected to each rabbit in a dose of […] subcutaneously on the left side of the back in a volume of 0.2 to 0.25 ml, and 1 ml of horse serum was injected into the right side of the back (also subcutaneously). We made seven injections at 5-day in tervals. Horse serum alone was injected to the fourth (control) rabbit in the same order.

patients = experiment: Surgical operations, first series (maintenance of relaxation); assay type: in vivo, patients (human)
Description: We tried Tercuronium as a muscle relaxant in surgical operations on the abdominal and thoracic organs in 150 patients. The operations were carried out in conditions of intubation narcosis and artificial lung ventilation. Ether, fluorothane, nitrous oxide and barbiturates were used as anesthetics.
In the first series of observations (120 operations) Tercuronium was used as the main muscle relaxant for maintaining relaxation of the muscles. Tracheal intubation was carried out with muscle relaxation induced by dithilin-group agents. […] Complete muscle relaxation with the absence of active respiration continued on an average of 40 minutes. If, with the first signs of restoration of the muscle tone, we made another intravenous injection of Tercuronium in a dose constituting 1/3 to 1/2 of the initial one, complete relaxation continued for further 60 - 90 minutes.

[10] = 0.02 to 0.024 mcM/kg daily, twelve days
[11] = deep fluorothane-induced anesthesia
[12] = ether, fluorothane, sodium thiopental

Structure (SMILES): CC[N+](CC)(CC)c1ccc(-c2ccc(-c3ccc([N+](CC)(CC)CC)cc3)cc2)cc1 [Tercuronium, p,p"-bis-triethylammonio-n-terphenyl dibenzenesulphonate]
- solubility in water [1]: readily soluble in water
- stability on exposure to air [1]: slightly green when exposed to air
- stability on exposure to air ([1]; listed as p,p"-bis-triethylammonio-p-terphenyl): becomes slightly green on exposture to air
- stability of aqueous solution ([1]; stabilizer 3 ml of 0.1 N HCl per liter of water): stable in the presence of a stabilizer
- ED100 ([2]; Oryctolagus cuniculus, narcotized rabbits, intravenous, five experiments, read-out: dose producing complete block of ischio-gastrocnemius conduction): 0.025 ± 0.005 µmol/kg
- restoration of muscle contraction by neostigmin ([2]; neostigmin 0.1 mg/kg during complete block): always resulted in immediate and full restoration of the muscle contraction
- depression after intravenous acetylcholine (M-cholinoreceptors): did not produce depression
- blood coagulation rate and resistance of the erythrocytes [3]: did not discover any effect
- response of n. vagus to stimulation ([4]; 0.1 and 1.0 mcM/kg): the response of n. vagus to stimulation did not change
- heart contractility without stimulation of n. vagus ([4]; 0.1 and 1.0 mcM/kg intravenous): heart contractility was not affected
- effect on parasympathetic part of the vegetative nerve system ([4]; 20 times the myoparalytic dose): does not produce any effect on the parasympathetic part of the vegetative nerve system
- bronchospasm or salivation ([4]; very large dose, other experiments on animals): no bronchospasm or salivation were observed
- behaviour and rectal temperature (rabbits [5]; [10]): no appreciable changes
- blood and urine analysis (rabbits [5]; [10]): did not find any pathological inclusions or changes
- histological examination of organs (rabbits [5]; [10]): Nor did we discover any pathological changes
- sensitivity of animals in the course of the experiment (rabbits [5]; 0.02 to 0.024 mcM/kg intravenous daily, twelve days): did not change in the course of the experiment
- irritating action at site of administration (rabbits [5]; ear vein): no signs of irritating action
- interaction with fluorothane on blood pressure ([6]; decerebrated cats): did not observe mutual strengthening of fluorothane and Tercuronium action on blood pressure
- action on arterial pressure in ether narcosis ([6]; deep ether-induced narcosis): did not substantially change
- depressive effect in fluorothane anesthesia [6, 11]: failed to increase
- myoparalytic effect in fluorothane anesthesia [6, 11]: intensified insignificantly
- compatibility with anesthetic agents [6, 12]: quite compatible with anesthetic agents such as ether, fluorothane, and sodium thiopental
- neostigmin antagonism against background of narcotics [6, 12]: persisted against the back ground of narcotics; also recorded: fully preserved
- curare-like activity and action on blood pressure with sodium thiopental ([6]; sodium thiopental 10 mg/kg): did not change
- contractions produced in the muscle [7]: did not produce contractions in the muscle
- ED (head drop) (rabbits [8]; Oryctolagus cuniculus, read-out: head-drop dose (HDD)): 0.022 ± 0.009 µmol/kg
- time of onset and duration of blocking effect, comparison (rabbits [8]; all three preparations): the same
- blocking effect compared with pancuronium (rabbits [8]; rabbits): somewhat lower than that of pancuronium
- blocking effect relative to α-tubocurarin (rabbits [8]; rabbits): eight
- local allergic reaction (rabbits [9]): no reaction
- arterial pressure and frequency of heart contractions (patients; 0.12 - 0.15 mg/kg): No changes in arterial pressure ar frequency of heart contractions, that could be attributed to the injection of Tercuronium, were observed
- duration of complete muscle relaxation with absence of active respiration (patients; 0.12 - 0.15 mg/kg intravenous, average): 40 min
- electromyographic character of action (patients; electromyographic analysis): nondepolarizing muscle relaxant
- postoperative complications (patients; postoperative period): did not observe any case of insufficient efficacy of proserpin, muscular atomia, or insufficiency of active respiration, or recurarization
- restoration of active respiration by proserpin (patients; proserpin 2.5 mg at end of operation): always resulted in quick (within a few minutes) restoration of active respiration in full volume
